Values quoted from earlier work as cited in patent US20240299372A1, “Transdermal Drug Delivery Systems for Administration of a Therapeutically Effective Amount of Apixaban and Other Direct Oral Anticoagulants” (Pike Therapeutics Inc., priority 2023, published 2024).

Key:
[1] = for Absolute oral bioavailability: oral administration; for bioavailability: oral, background statement on GI tract exposure
[2] = oral administration; literature refs [1-4]

Row | Structure (SMILES) | Absolute oral bioavailability [1] | bleeding complications as reason for DOAC discontinuation [2] | bioavailability [1]
1 | CN1CCc2nc(C(=O)N[C@@H]3C[C@@H](C(=O)N(C)C)CC[C@@H]3NC(=O)C(=O)Nc3ccc(Cl)cn3)sc2C1 [Edoxaban, N′-(5-chloropyridin-2-yl)-N-[(1S,2R, 4S)-4-(dimethylcarbamoyl)-2-[(5-methyl-6,7-dihydro-4H-[1,3]thiazolo[5,4-c]pyridine-2-carbonyl)amino]cyclohexyl]oxamide] | approx. 62% |  | 
2 | COc1ccc(-n2nc(C(N)=O)c3c2C(=O)N(c2ccc(N4CCCCC4=O)cc2)CC3)cc1 [Apixaban, 1-(4-methoxyphenyl)-7-oxo-6-[4-(2-oxopiperidin-1-yl)phenyl]-4,5-dihydropyrazolo[3,4-c]pyridine-3-carboxamide] | approx. 50% | 5.7-10.1% | 
3 | O=C(NC[C@H]1CN(c2ccc(N3CCOCC3=O)cc2)C(=O)O1)c1ccc(Cl)s1 [Rivaroxaban, 5-chloro-N-[[(5S)-2-oxo-3-[4-(3-oxomorpholin-4-yl)phenyl]-1,3-oxazolidin-5-yl]methyl]thiophene-2-carboxamide] | 80%-100 | 16.8-24.5% | 60-80%
4 | [H]/N=C(/N)c1ccc(NCc2nc3cc(C(=O)N(CCC(=O)O)c4ccccn4)ccc3n2C)cc1 [Dabigatran, 3-[[2-[(4-carbamimidoylanilino)methyl]-1-methylbenzimidazole-5-carbonyl]-pyridin-2-ylamino]propanoic acid] | 3%-7 | 3.4-9.7% | 6%
5 | COc1ccc(NC(=O)c2ccc(C(=N)N(C)C)cc2)c(C(=O)Nc2ccc(Cl)cn2)c1 [Betrixaban, N-(5-chloropyridin-2-yl)-2-[[4-(N,N-dimethylcarbamimidoyl)benzoyl]amino]-5-methoxybenzamide] | approx. 34% |  | 
